The values that follow come from patent publication US8383683B2, “Pharmaceutical use of substituted amides” (High Point Pharmaceuticals, LLC, priority 2007, dated 2013).

SMILES strings stand for the structures.

Usually IC50 stands for the concentration that inhibits the measured activity by half. A lower IC50 goes with greater potency in that assay.

The target in the assay is 11βHSD1 (Homo sapiens, UniProt P28845). Briefly: 11βHSD1 enzyme assay (SPA, 3H-cortisone to 3H-cortisol). The format is biochemical. To be noted: extract of yeast transformed with h-11βHSD1; 120 nM 3H-cortisone, 4 mM β-NADPH, 60 min at 30° C. Also on record: An extract of yeast transformed with h-11βHSD1 (Hutt et al., FEBS Lett., 441, 25 (1998)) was used as the source of enzyme; made in house. On the procedure: Pharmacological Methods 11βHSD1 Enzyme Assay Materials
11βHSD1, sequence (P28845 whole entry): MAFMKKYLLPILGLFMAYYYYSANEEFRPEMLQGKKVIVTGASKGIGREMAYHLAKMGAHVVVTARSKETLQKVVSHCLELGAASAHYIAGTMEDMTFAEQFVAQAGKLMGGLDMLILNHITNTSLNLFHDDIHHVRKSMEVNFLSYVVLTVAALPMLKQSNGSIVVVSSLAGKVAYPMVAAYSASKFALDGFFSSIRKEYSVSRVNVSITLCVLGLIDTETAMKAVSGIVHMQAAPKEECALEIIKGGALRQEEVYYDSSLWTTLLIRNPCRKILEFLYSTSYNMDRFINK
^3H-cortisone and anti-rabbit Ig coated scintillation proximity assay (SPA) beads were purchased from Amersham Pharmacia Biotech, β-NADPH was from Sigma and rabbit anti-cortisol antibodies were from Fitzgerald. An extract of yeast transformed with h-11βHSD1 (Hutt et al., FEBS Lett., 441, 25 (1998)) was used as the source of enzyme. The test compounds were dissolved in DMSO (10 mM). All dilutions were performed in a buffer containing 50 mM TRIS-HCl (Sigma Chemical Co), 4 mM EDTA (Sigma Chemical Co), 0.1% BSA (Sigma Chemical Co), 0.01% Tween-20 (Sigma Chemical Co) and 0.005% bacitracin (Novo Nordisk NS), pH=7.4. Optiplate 96 wells plates were supplied by Packard. The amount of ^3H-cortisol bound to the SPA beads was measured on TopCount NXT, Packard.
h-11βHSD1, 120 nM ^3H-cortisone, 4 mM β-NADPH, antibody (1:200), serial dilutions of test compound and SPA particles (2 mg/well) were added to the wells. The reaction was initiated by mixing the different components and was allowed to proceed under shaking for 60 min at 30° C. The reaction was stopped be the addition of 10 fold excess of a stopping buffer containing 500 μM carbenoxolone and 1 μM cortisone. Data was analysed using GraphPad Prism software.
Regarding `COC(=O)C12CC3CC(CN(C(=O)CCCOc4ccc(Cl)cc4Cl)C(C3)C1)C2` (stereo not shown) [Example 1-66, 4-[4-(2,4-Dichloro-phenoxy)-butyryl]-4-aza-tricyclo[4.3.1.1{3,8}]-undecane-1-carboxylic acid methyl ester], the IC50 was determined as 3 nM. The figure for `O=C(CCCOc1ccc(Cl)cc1Cl)N1CC2CC3CC1CC(C(=O)O)(C3)C2` (stereo not shown) [Example 1-67, 4-[4-(2,4-Dichloro-phenoxy)-butyryl]-4-aza-tricyclo[4.3.1.1{3,8}]-undecane-1-carboxylic acid] is 25 nM; for `COC(=O)C12CC3CC(C1)C(NC(=O)CCCOc1ccc(Cl)cc1Cl)C(C3)C2` (stereo not shown) [Example 1-68, 4-[4-(2,4-Dichloro-phenoxy)-butyrylamino]-adamantane-1-carboxylic acid methyl ester] it is 17 nM; for `CN(C(=O)CCCOc1ccc(Cl)cc1Cl)C1CCC(S(N)(=O)=O)CC1` (stereo not shown) [Example 1-69, 4-(2,4-Dichloro-phenoxy)-N-methyl-N-(4-sulfamoyl-cyclohexyl)-butyramide] it is 2 nM. The figure for `CN(C(=O)CCCOc1ccc(Cl)cc1Cl)C1CCC(S(=O)(=O)N(C)C)CC1` (stereo not shown) [Example 1-70, 4-(2,4-Dichloro-phenoxy)-N-(4-dimethyl-sulfamoyl-cyclohexyl)-N-methyl-butyramide] is 479 nM; for `CN(C(=O)CCCOc1ccc(Cl)cc1Cl)C1CCC(S(=O)(=O)N(C)C)CC1` (stereo not shown) [Example 1-71, 4-(2,4-Dichloro-phenoxy)-N-(4-dimethyl-sulfamoyl-cyclohexyl)-N-methyl-butyramide] it is 21 nM. The figure for `CCOC(=O)C12CCC(NC(=O)CCCOc3ccc(Cl)cc3Cl)(CC1)CC2` [Example 1-72, 4-[4-(2,4-Dichloro-phenoxy)-butyrylamino]-bicyclo[2.2.2]octane-1-carboxylic acid ethyl ester] is 198 nM; for `O=C(CCCOc1ccc(Cl)cc1Cl)NC12CCC(CO)(CC1)CC2` [Example 1-73, 4-(2,4-Dichloro-phenoxy)-N-(4-hydroxy-methyl-bicyclo[2.2.2]oct-1-yl)-butyramide] it is 1 nM. Consider `CN(C(=O)CCCOc1ccc(Cl)cc1Cl)C1CCC(C(=O)O)CC1` (stereo not shown) [Example 1-74, 4-{[4-(2,4-Dichloro-phenoxy)-butyryl]-methyl-amino}-cyclo-hexanecarboxylic acid], for which half-maximal inhibition (IC50) required 809 nM. Take `O=C(CCCOc1ccc(Cl)cc1Cl)NC1CCC(CO)CC1` (stereo not shown) [Example 1-75, 4-(2,4-Dichloro-phenoxy)-N-(4-hydroxy-methyl-cyclohexyl)-butyramide]: inhibition was half-maximal at 27 nM (IC50). In the case of `CN(C(=O)CCCOc1ccc(Cl)cc1Cl)C1CCC(C(N)=O)CC1` (stereo not shown) [Example 1-76, 4-{[4-(2,4-Dichloro-phenoxy)-butyryl]-methyl-amino}-cyclo-hexanecarboxylic acid amide], the IC50 turned out to be 18 nM. With `CN(C(=O)CCCOc1ccc(Cl)cc1Cl)C1CCC(C(C)(C)O)CC1` (stereo not shown) [Example 1-78, 4-(2,4-Dichloro-phenoxy)-N-[4-(1-hydroxy-1-methyl-ethyl)-cyclohexyl]-N-methyl-butyramide] the figure was 23 nM; with `CC(C)(O)C1CCC(NC(=O)CCCOc2ccc(Cl)cc2Cl)CC1` (stereo not shown) [Example 1-79, 4-(2,4-Dichloro-phenoxy)-N-[4-(1-hydroxy-1-methyl-ethyl)-cyclohexyl]-butyramide], 300 nM; with `CCOC(=O)C1CC2CC1CC2N(C)C(=O)CCCOc1ccc(Cl)cc1Cl` (stereo not shown) [Example 1-80, 5-{[4-(2,4-Dichloro-phenoxy)-butyryl]-methyl-amino}-bicyclo[2.2.1]heptane-2-carboxylic acid ethyl ester], 700 nM. The figure for `CC(C)(O)C12CC3CC(C1)C(NC(=O)CCCOc1ccc(Cl)cc1Cl)C(C3)C2` (stereo not shown) [Example 1-83, 4-(2,4-Dichloro-phenoxy)-N-[5-(1-hydroxy-1-methyl-ethyl)-adamantan-2-yl]-butyramide] is 9 nM; for `CN(C(=O)CCCOc1ccc(Cl)cc1Cl)C1CC2CC1CC2CO` (stereo not shown) [Example 1-84] it is 30 nM.
